Converted amounts (≈) assume the structure as drawn.
Experiments:
Assay in all cases: in vitro antibacterial activity, broth microdilution method (CLSI M31-A2), MIC
Format in all cases: cell-based
P. multocida = test system: P. multocida
Method: (§1) The compound obtained in the present invention was measured for its in vitro antibacterial activity by a broth microdilution method in accordance with a CLSI method (formerly NCCLS method, […]-A2) (Performance Standards for Antimicrobial Disk and Dilution Susceptibility Tests for Bacteria Isolated from Animals; Approved Standard-Second Edition NCCLS […]-A2 Vol. 22 No. 6 2002). A medium composition used in the measurement is shown below. […] The resultant test drug solution was further subjected to two-step dilution with the liquid medium shown below to prepare a test drug solution at each concentration level. The thus prepared test drug solution at each concentration level was dispensed into a 96-well microplate at 100 μL/well, and a test bacterial strain was inoculated at about 5×10^4 CFU/well. After having been cultured in the presence of 5% CO2 gas at 37° C. for 20 to 24 hours, the test bacterial strain was visually observed for the presence or absence of its growth. A minimum drug concentration completely inhibiting the growth of the test bacterial strain was defined as a minimum inhibitory concentration (hereinafter referred to as MIC). […] Saponin was dissolved with purified water. The solution was sterilized and then added to defibrinated horse blood.

M. haemolytica = test system: M. haemolytica
Method: as §1

H. somni = test system: H. somni
Method: as §1

A. pleuropneumoniae = test system: A. pleuropneumoniae
Method: as §1

H. parasuis = test system: H. parasuis
Method: as §1

[1] = P. multocida (bovine) strain 11272R
[2] = P. multocida (bovine) strain 11325-1R
[3] = P. multocida (bovine) strain 11787-24R1
[4] = P. multocida (bovine) strain ATCC43019
[5] = P. multocida (swine) strain 11587-3R
[6] = P. multocida (swine) strain 11745-15R
[7] = P. multocida (swine) strain ATCC43137
[8] = A. pleuropneumoniae strain 10895-2R
[9] = A. pleuropneumoniae strain 11684-7R
[10] = A. pleuropneumoniae strain 11796-1R
[11] = A. pleuropneumoniae strain 11804-2R
[12] = A. pleuropneumoniae strain ATCC27089

Structure (SMILES) | MIC (P. multocida; [1]) | MIC (P. multocida; [2]) | MIC (P. multocida; [3]) | MIC (P. multocida; [4]) | MIC (P. multocida; [5]) | MIC (P. multocida; [6]) | MIC (P. multocida; [7]) | MIC (M. haemolytica; M. haemolytica strain 11443R) | MIC (M. haemolytica; M. haemolytica strain 11467-2R) | MIC (H. somni; H. somni strain 11321R) | MIC (H. somni; H. somni strain 11423-3R) | MIC (A. pleuropneumoniae; [8]) | MIC (A. pleuropneumoniae; [9]) | MIC (A. pleuropneumoniae; [10]) | MIC (A. pleuropneumoniae; [11]) | MIC (A. pleuropneumoniae; [12]) | MIC (H. parasuis; H. parasuis strain 11510-1-2R) | MIC (H. parasuis; H. parasuis strain 11640-1R)
CO[C@@H]1C(OC2O[C@@H](C)C(O)C(N(C)C)C2O)[C@@H](CC=O)C[C@@H](C)[C@@H](OC(C)=O)/C=C/[C@@H](N(C)CCCc2ccnc3ccccc23)[C@@H](O)C[C@@H](C)OC(=O)C[C@H]1OC(C)=O (stereo partly drawn) [(IIIb)] | 4 µg/mL (≈ 4.66 µM) | 2 µg/mL (≈ 2.33 µM) | 4 µg/mL (≈ 4.66 µM) | 4 µg/mL (≈ 4.66 µM) | 4 µg/mL (≈ 4.66 µM) | 4 µg/mL (≈ 4.66 µM) | 4 µg/mL (≈ 4.66 µM) | 4 µg/mL (≈ 4.66 µM) | 4 µg/mL (≈ 4.66 µM) | 0.5 µg/mL (≈ 0.583 µM) | 1 µg/mL (≈ 1.17 µM) | 4 µg/mL (≈ 4.66 µM) | 32 µg/mL (≈ 37.3 µM) | 4 µg/mL (≈ 4.66 µM) | 8 µg/mL (≈ 9.32 µM) | 4 µg/mL (≈ 4.66 µM) | 0.5 µg/mL (≈ 0.583 µM) | 4 µg/mL (≈ 4.66 µM)
CCC(=O)OC1CC(=O)OC(C)CC(O)C(N(C)CCCc2ccnc3ccccc23)C=CC(OC(C)=O)C(C)CC(CC=O)C(OC2OC(C)C(O)C(N(C)C)C2O)C1OC (stereo not drawn) [(IIIa)] | 4 µg/mL (≈ 4.59 µM) | 2 µg/mL (≈ 2.29 µM) | 4 µg/mL (≈ 4.59 µM) | 4 µg/mL (≈ 4.59 µM) | 4 µg/mL (≈ 4.59 µM) | 4 µg/mL (≈ 4.59 µM) | 2 µg/mL (≈ 2.29 µM) | 2 µg/mL (≈ 2.29 µM) | 4 µg/mL (≈ 4.59 µM) | 0.5 µg/mL (≈ 0.573 µM) | 1 µg/mL (≈ 1.15 µM) | 4 µg/mL (≈ 4.59 µM) | 16 µg/mL (≈ 18.3 µM) | 4 µg/mL (≈ 4.59 µM) | 4 µg/mL (≈ 4.59 µM) | 4 µg/mL (≈ 4.59 µM) | 0.25 µg/mL (≈ 0.287 µM) | 2 µg/mL (≈ 2.29 µM)

From patent publication US20140039171A1, “NOVEL MACROLIDE INTERMEDIATE AND NOVEL PRODUCTION PROCESS” (MEIJI SEIKA PHARMA CO., LTD., priority 2011, published 2014)
